Data set [1] is described as follows: Solubility determination of crystal form C of tromethamine salt. The following applies: 37 °C, thermodynamic from solid. Format: physicochemical. The procedure: 1 to 2 mg of compound 28 was weighed into a 1.5 mL liquid phase vial, then 1 mL of pH buffer, artificial simulated gastric fluid (FaSSGF), artificial fasted-state simulated intestinal fluid (FaSSIF), artificial non-fasted-state simulated intestinal fluid (FeSSIF), and pure water were respectively added, and the mixture was placed on a constant temperature oscillator overnight at a temperature of 37 degrees. After 24 h, the sample solution was filtered with a 0.45 μm mixed water fiber filter membrane and then the filtrate was taken. The content was tested by HPLC. For the HPLC detection method, please refer to the solution stability analysis method in Section 1.2.

A short description of data set [2]: Thermodynamic stability experiment of crystal form (slurrying in solvents). Format: physicochemical. The procedure: Through polycrystalline screening test, the relatively thermodynamically stable crystal form of salt was found.
The mixture was slurried at 40 degrees for 2 days, and centrifuged, and the solid was oven-dried in vacuo at 40 degrees overnight, and then XRD and other corresponding characterizations were performed.

What is called solubility is the concentration that dissolves in the medium under given conditions.

Structures are written as SMILES.

Consider `O=C(O)c1ccc2nc(CN3CCC(c4cccc5c4OC(c4ccc(Cl)cc4F)C=C5)CC3)n(CC3CCO3)c2c1` (centres unmarked), for which the solubility at 24 h worked out at 254 µg/mL in data set [1] (aqueous buffer, USP Buffer pH 7.4, 37 degrees); 478 µg/mL in data set [1] (FaSSIF, 37 degrees); 756 µg/mL in data set [1] (FeSSIF, 37 degrees); 66.4 µg/mL in data set [1] (water, H2O, 37 degrees). The “XRD after slurrying for 2 days” value is “Crystal form C” in data set [2] (EA 200 ul, 40 degrees); “Crystal form C” in data set [2] (EtOH 200 ul, 40 degrees); “Crystal form C” in data set [2] (Heptane 200 ul, 40 degrees); “Crystal form C” in data set [2] (IPA 200 ul, 40 degrees); “Crystal form C” in data set [2] (IPAC 200 ul, 40 degrees); “Crystal form C” in data set [2] (IPE 200 ul, 40 degrees). Further, the “XRD after slurrying for 2 days” value in data set [2] (MTBE 200 ul, 40 degrees) was “Crystal form C”; in data set [2] (hexane 200 ul, 40 degrees), “Crystal form C”. Besides, the “Stability of crystal form (in words)” value in data set [2] (slurried in solvents at 40 degrees for 2 days) is “very stable”. Also, the “Phenomenon after slurrying for 2 days” value in data set [2] (water 200 ul, 10 mg, 40 degrees) is recorded as “Dissolved clarification”.

For the origin of these results see US20260226046A1 (JIANGSU HANSOH PHARMACEUTICAL GROUP CO., LTD., priority 2023, published 2026).
